From patent US20240011094A1, “METHODS FOR DIAGNOSIS AND TREATING POLYCYSTIC OVARY SYNDROME (PCOS)” (INSTITUT NATIONAL DE LA SANTÉ ET DE LA RECHERCHE MÉDICALE, priority 2020, published 2024)
No end group written: not given here.

Tests used:
[1] = system: PAMH F3 female offspring (PCOS-like mice); experiment: SAM treatment of PAMH F3 female mice: estrous cyclicity, LH, T, body composition, pancreatic islets; assay type: in vivo, mouse
Protocol: Control F1 and PAMH F1-F3 female offspring were weaned at post-natal day P21 and checked for vaginal opening (VO) and time of first estrus. Anogenital distance (AGD) and body mass (grams, g) were measured at different ages during post-natal development (P30, 35, 40, 50 and 60). At VO and in adulthood (P60), vaginal smears were performed daily for 16 consecutive days (4-cycles) for analysis of age of first estrus and estrous cyclicity. Vaginal cytology was analyzed under an inverted microscope to identify the specific stage of the estrous cycle. The reproductive competency of these animals was determined by pairing the following mice: CNTR F1 females mated with CNTR F1 males, CNTR F1 males mated with PAMH F1-F3 females, PAMH F1-F3 females mated with PAMH F1-F3 males, for a period of 3 months. Unexperienced males and primiparous females, selected from at least three different litters, were used for the 90-days mating protocol test. Number of pups/litter (number of pups), fertility index (number of litters per females over 3 months), and time to first litter (number of days to first litter after pairing) were quantified per treatment and pairing.
LH levels were determined by a sandwich ELISA, as described previously (Steyn et al., 2013), using the mouse LH-RP reference provided by A. F. Parlow (National Hormone and Pituitary Program, Torrance, CA). Plasma T levels were analyzed using a commercial ELISA (Demeditec Diagnostics, GmnH, DEV9911) (Moore et al., 2015) according to the manufacturers' instructions.
Whole body fat, fluids, and lean tissue mass were determined by Nuclear Magnetic Resonance (MiniSpec mq 7.5, RMN Analyser, Bruker) according to the manufacturer's recommendations.
(§1) PAMH F3 female offspring (6 months-old) were cycled for 10 days before treatment, and for additional 15 days during the treatment. CNTR female offspring (6 months-old) were not treated and were cycled for 25 days. Vaginal cytology was analyzed under an inverted microscope to record the specific stage of the estrous cycle. PAMH F3 offspring were injected intraperitoneally (i.p.) daily for 15 days with 200 μL of a solution containing 0.01M phosphate buffered saline (PBS, pH 7.4) or with SAM (50 mg/Kg/day; New England Biolegends, Cat. B9003S). This concentration was chosen based on previous in vivo pharmacological studies using the same drug (Li et al., 2012). Tail-blood samples were collected for LH and T measurements at dioestrus before the beginning of the treatments, at day 10, and at the end of the treatment, at day 25.

ovaries of PAMH F3 mice = experiment: RT-qPCR gene expression in ovaries of SAM-treated PAMH F3 mice; assay type: in vivo, mouse
Protocol: Ovaries tissues were harvest from control F1 and PAMH F3 female mice, frozen ovaries were homogenized using 1 ml of Trizol (ThermoFisher Scientific, Cat #15596026) with a tissue homogenizer and total RNA was isolated using RNeasy Lipid Tissue Mini Kit (Qiagen; Cat #74804) following the manufacturer's instructions. For gene expression analyses, cDNA was synthetized from 1000 ng of total RNA using the High capacity RNA-to-cDNA kit (Applied Biosystems, Cat #4387406) using the manufacturer's recommended cycling conditions. Real-time PCR was carried out on Applied Biosystems 7900HT Fast Real-Time PCR system using exon-boundary-specific TaqMan® Gene Expression Assays (Applied Biosystems) (Table S4). Data were analyzed by using the 2^−ΔΔCT method (Livak and Schmittgen, 2001) and normalized to housekeeping genes Beta-actin (ActB) levels. Values are expressed relative to control values, as appropriate, set at 1.
as §1

NgTET1 [2] = conditions: cited from earlier work
mTET1 = mTET1 (Mus musculus, UniProt Q3URK3); conditions: cited from earlier work
NgTET1 [3] = target: T1, NgTET1 (Naegleria gruberi, UniProt D2W6T1); conditions: cited from earlier work
T1 sequence (D2W6T1 1-321): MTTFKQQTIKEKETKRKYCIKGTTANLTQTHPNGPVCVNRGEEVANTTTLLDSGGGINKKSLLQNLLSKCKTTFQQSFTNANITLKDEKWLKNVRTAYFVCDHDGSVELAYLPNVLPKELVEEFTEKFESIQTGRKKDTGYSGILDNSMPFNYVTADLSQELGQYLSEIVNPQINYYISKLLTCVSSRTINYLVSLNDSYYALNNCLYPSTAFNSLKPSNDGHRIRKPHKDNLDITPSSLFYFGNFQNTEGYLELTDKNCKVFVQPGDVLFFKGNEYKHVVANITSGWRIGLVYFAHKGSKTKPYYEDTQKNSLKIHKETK

[4] = target: T2, TET1 catalytic domain (TET1CD) (Homo sapiens, UniProt Q8NFU7); conditions: cited from earlier work
T2 sequence (Q8NFU7 1418-2136 limits assumed): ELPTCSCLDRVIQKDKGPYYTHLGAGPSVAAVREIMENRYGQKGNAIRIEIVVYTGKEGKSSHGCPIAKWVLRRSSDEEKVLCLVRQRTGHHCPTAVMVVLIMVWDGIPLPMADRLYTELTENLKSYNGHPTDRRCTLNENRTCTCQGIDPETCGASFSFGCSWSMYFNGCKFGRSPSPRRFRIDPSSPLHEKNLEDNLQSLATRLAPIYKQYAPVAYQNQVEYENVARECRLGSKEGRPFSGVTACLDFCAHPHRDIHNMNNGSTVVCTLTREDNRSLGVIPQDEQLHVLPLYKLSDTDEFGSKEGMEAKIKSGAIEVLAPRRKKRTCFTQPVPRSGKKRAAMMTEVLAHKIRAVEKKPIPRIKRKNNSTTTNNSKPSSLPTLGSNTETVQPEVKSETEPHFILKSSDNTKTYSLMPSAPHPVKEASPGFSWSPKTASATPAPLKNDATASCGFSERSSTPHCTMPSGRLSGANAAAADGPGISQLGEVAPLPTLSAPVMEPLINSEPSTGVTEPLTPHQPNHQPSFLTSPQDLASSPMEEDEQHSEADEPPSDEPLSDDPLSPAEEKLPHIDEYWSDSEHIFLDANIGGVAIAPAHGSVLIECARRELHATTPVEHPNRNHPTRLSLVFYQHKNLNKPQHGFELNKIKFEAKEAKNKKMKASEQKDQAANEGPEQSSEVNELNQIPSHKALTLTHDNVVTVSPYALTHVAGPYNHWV

[5] = PAMH F3 females, SAM 50 mg/kg/day i.p. for 15 days
[6] = PAMH F3 females, dioestrus, day 25, SAM 50 mg/kg/day i.p. for 15 days

Chain of mTET1 (Q3URK3 whole entry): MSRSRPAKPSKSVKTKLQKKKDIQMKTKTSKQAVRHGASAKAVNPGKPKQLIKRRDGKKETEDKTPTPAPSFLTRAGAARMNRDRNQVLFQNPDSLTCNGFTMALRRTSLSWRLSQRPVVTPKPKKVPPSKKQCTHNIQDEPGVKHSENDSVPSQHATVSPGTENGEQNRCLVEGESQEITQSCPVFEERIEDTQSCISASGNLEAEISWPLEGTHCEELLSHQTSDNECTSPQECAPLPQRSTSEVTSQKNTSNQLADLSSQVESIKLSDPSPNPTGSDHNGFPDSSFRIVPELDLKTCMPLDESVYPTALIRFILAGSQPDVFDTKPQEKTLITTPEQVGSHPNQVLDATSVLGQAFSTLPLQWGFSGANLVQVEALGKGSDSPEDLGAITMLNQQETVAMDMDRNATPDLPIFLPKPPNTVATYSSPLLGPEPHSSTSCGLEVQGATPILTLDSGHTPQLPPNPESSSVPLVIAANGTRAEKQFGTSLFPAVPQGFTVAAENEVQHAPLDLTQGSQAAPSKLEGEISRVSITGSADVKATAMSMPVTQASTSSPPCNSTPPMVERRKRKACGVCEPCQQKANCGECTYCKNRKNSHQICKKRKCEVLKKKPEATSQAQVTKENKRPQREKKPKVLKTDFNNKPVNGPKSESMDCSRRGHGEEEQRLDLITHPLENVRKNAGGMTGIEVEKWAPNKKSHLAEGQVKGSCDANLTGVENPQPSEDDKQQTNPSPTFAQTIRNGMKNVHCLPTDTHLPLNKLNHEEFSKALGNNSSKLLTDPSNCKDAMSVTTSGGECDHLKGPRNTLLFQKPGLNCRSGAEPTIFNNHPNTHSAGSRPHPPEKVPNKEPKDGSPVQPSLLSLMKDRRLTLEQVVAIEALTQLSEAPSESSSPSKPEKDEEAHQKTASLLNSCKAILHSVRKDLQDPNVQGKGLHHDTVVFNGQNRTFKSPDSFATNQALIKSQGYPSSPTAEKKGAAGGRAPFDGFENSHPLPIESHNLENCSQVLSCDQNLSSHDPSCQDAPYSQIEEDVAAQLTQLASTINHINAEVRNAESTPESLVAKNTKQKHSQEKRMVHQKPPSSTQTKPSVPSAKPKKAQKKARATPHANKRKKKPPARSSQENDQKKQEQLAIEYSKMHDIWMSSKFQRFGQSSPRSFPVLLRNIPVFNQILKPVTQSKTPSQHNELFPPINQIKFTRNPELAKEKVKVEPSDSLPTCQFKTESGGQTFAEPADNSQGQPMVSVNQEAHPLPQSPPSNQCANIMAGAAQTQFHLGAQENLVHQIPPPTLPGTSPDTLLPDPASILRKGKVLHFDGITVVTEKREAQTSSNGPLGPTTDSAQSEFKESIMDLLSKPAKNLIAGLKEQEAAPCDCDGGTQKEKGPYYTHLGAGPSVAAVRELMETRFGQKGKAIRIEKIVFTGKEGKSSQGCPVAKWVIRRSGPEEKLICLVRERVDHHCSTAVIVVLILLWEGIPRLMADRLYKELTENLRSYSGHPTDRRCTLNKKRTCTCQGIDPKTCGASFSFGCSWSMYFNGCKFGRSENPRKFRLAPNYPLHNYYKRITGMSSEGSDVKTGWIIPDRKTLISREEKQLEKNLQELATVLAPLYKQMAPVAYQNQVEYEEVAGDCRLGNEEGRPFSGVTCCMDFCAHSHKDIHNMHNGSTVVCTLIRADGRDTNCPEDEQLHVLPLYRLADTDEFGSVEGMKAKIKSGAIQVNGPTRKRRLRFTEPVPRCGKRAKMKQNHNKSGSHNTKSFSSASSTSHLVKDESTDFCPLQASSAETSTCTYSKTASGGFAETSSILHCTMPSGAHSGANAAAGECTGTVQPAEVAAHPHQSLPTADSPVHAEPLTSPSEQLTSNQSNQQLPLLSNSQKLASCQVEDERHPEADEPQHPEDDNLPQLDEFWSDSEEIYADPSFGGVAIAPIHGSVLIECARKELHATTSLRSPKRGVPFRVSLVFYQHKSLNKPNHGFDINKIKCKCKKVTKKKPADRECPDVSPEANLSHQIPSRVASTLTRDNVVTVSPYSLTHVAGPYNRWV

C[S@@+](CC[C@H](N)C(=O)[O-])C[C@H]1O[C@@H](n2cnc3c(N)ncnc32)[C@H](O)[C@@H]1O (stereo in doubt) [SAM, S-Adenosyl methionine]
percentage of completed estrous cycles ([1]; PAMH F3 females, 6 months-old, SAM 50 mg/kg/day i.p. for 15 days): 75% | body mass composition, % of fat mass [1, 5]: normalized | body mass composition, % of lean mass [1, 5]: normalized | size of the islet of Langerhans [1, 5]: normalized | time spent in each estrous cycle stage (ovulation) [1, 5]: restored normal ovulation | LH concentrations [1, 6]: normalized | T concentrations [1, 6]: normalized | major PCOS-like neuroendocrine, reproductive and metabolic traits ([1]; PAMH F3 mice, postnatal SAM treatment): rescue | Hdc ovarian gene expression (ovaries of PAMH F3 mice): rescue | NF-κB mRNA in ovaries (ovaries of PAMH F3 mice): normalized | Ptgs2 mRNA in ovaries (ovaries of PAMH F3 mice): normalized | Sorbs2 expression in ovaries (ovaries of PAMH F3 mice): remained unaltered | Uhrf1 expression in ovaries (ovaries of PAMH F3 mice): restored | Tet1 transcript levels in ovarian tissues (ovaries of PAMH F3 mice; compared with controls): unaltered

cyclic peptide TET1 inhibitor, SEQ ID 5: (Ac)YYRVKTYYQITYVYLSC [Molecule 38]
IC50 (NgTET1 [2]): 1.44 µM

Fumarate [Molecule 32]
IC50 (mTET1): 390 µM

cyclic peptide TET1 inhibitor, SEQ ID No 4: (Ac)YWYLPSYRVPWFC [Molecule 37]
IC50 (NgTET1 [2]): 1.13 µM

O=C(O)CNC(=O)C(=O)O [Molecule 30, N-oxalylglycine]
IC50 (NgTET1 [2]): 49 µM

O=C(O)CCC(=O)C(=O)O [Molecule 3, 2-oxoglutraric acid]
IC50 (NgTET1 [2]): 250 µM

O=C(O)/C=C/C(=O)N(O)CCCCCCCCNC(=S)Nc1ccc(-c2c3ccc(=O)cc-3oc3cc(O)ccc23)c(C(=O)O)c1 [Molecule 33]
Kd (NgTET1 [3]): 250 nM

O=C(O)c1ccnc(C(=O)O)c1 [Molecule 35, 2,4-pyridinedicarboxylic acid]
IC50 (NgTET1 [2]): 27 µM

cyclic peptide TET1 inhibitor, SEQ ID No 3: (Ac)YLIYAYYTWWEHSC (Ac-YLIYAYYTWWEHSC; not fully specified (bridges)) [Molecule 36]
IC50 (NgTET1 [2]): 1.48 µM | selectivity, inhibition of TET1CD over TET2CD [4]: tenfold
